pEC50: −log10 of the molar value.
Experiments:
Type in all cases: cell-based
[1] = molecular target: T1, PPAR-alpha (Homo sapiens, UniProt Q07869); test: human PPAR-GAL4 chimera luciferase reporter assay in CV-1 cells, PPAR-alpha; settings: Table 3, Examples 11-25, read-out: PPAR alpha (EC50)
T1 construct: expressed in transfected cells; host or cells: CV-1 cells
T1 sequence (Q07869 239-466 limits assumed): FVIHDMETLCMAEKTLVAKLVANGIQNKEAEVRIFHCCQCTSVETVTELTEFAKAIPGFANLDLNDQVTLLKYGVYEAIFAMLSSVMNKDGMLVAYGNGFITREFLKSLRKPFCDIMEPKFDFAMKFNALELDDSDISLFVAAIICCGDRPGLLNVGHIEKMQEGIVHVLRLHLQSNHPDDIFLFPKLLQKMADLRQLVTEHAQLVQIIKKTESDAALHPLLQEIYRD
Experimental: (§1) The compounds were evaluated in a cell-based assay to determine their human PPAR activity. The plasmids for human PPAR-GAL4 chimeras were prepared by fusing amplified cDNAs encoding the LBDs of PPARs to the C-terminal end of the yeast GAL4 DNA binding domain. CV-1 cells were grown and transiently transected with PerFectin (GTS, San Diego, Calif.) according to the manufacturer's protocol along with a luciferase reporter. Eight hours after transfection, 50 μl of cells were replated into 384 well plates ([…]). Sixteen hours after replating, cells were treated with either compounds or 1% DMSO for 24 hours. Luciferase activity was then assayed with Britelite (Perkin Elmer) following the manufacturer's protocol and measured with either the Perkin Elmer Viewlux or Molecular Devices Acquest.
(§2) Compounds may be screened for functional potency in transient transfection assays in CV-1 cells for their ability to activate the PPAR subtypes (transactivation assay). A previously established chimeric receptor system was utilized to allow comparison of the relative transcriptional activity of the receptor subtypes on the same synthetic response element and to prevent endogenous receptor activation from complicating the interpretation of results. See, for example, Lehmann, J. M.; Moore, L. B.; Smith-Oliver, T. A; Wilkinson, W. O.; Willson, T. M.; Kliewer, S. A., An antidiabetic thiazolidinedione is a high affinity ligand for peroxisome proliferator-activated receptory γ (PPARγ), J. Biol. Chem., 1995, 270, 12953-6. The ligand binding domains for murine and human PPAR-alpha, PPAR-gamma, and PPAR-delta are each fused to the yeast transcription factor GAL4 DNA binding domain. CV-1 cells were transiently transfected with expression vectors for the respective PPAR chimera along with a reporter construct containing four or five copies of the GAL4 DNA binding site driving expression of luciferase. After 8-16 h, the cells are replated into multi-well assay plates and the media is exchanged to phenol-red free DME medium supplemented with 5% delipidated calf serum. 4 hours after replating, cells were treated with either compounds or 1% DMSO for 20-24 hours. Luciferase activity was then assayed with Britelite (Perkin Elmer) following the manufacturer's protocol and measured with either the Perkin Elmer Viewlux or Molecular Devices Acquest (see, for example, Kliewer, S. A., et. al. Cell 1995, 83, 813-819). Rosiglitazone is used as a positive control in the hPPAR-γ assay. Wy-14643 and GW7647 is used as a positive control in the hPPAR-α assay. GW501516 is used as the positive control in the hPPAR-δ assay.

[2] = molecular target: T2, PPAR-gamma (Homo sapiens, UniProt P37231); test: human PPAR-GAL4 chimera luciferase reporter assay in CV-1 cells, PPAR-gamma; settings: Table 3, Examples 11-25, read-out: PPAR gamma (EC50)
T2 construct: expressed in transfected cells; host or cells: CV-1 cells
T2 sequence (P37231 238-503 limits assumed): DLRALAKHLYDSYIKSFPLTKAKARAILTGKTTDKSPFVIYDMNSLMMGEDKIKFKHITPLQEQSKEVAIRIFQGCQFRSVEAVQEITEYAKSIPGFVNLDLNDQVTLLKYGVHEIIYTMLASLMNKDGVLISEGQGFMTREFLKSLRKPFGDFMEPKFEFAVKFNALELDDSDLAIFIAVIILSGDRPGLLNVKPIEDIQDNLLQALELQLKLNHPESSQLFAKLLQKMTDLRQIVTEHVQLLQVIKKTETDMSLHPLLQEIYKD
Experimental: as §1, §2

[3] = molecular target: T3, PPAR-delta (Homo sapiens, UniProt Q03181); test: human PPAR-GAL4 chimera luciferase reporter assay in CV-1 cells, PPAR-delta; settings: Table 3, Examples 11-25, read-out: PPAR delta (EC50)
T3 construct: expressed in transfected cells; host or cells: CV-1 cells
T3 sequence (Q03181 211-439 limits assumed): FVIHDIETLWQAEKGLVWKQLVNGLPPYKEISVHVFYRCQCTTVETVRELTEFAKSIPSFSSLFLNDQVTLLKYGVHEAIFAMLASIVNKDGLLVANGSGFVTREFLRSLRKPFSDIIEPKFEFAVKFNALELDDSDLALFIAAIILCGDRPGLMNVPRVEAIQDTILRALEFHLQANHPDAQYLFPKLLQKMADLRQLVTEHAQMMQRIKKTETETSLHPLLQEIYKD
Experimental: as §1, §2

Question: Cc1nc(-c2ccc(C(F)(F)F)cc2)sc1CCn1ccc2ccc(OC(C)(C)C(=O)O)cc21 [Example 23, 2-Methyl-2-(1-{2-[4-methyl-2-(4-trifluoromethyl-phenyl)-thiazol-5-yl]-ethyl}-1H-indol-6-yloxy)-propionic acid] was tested. Which pEC50 [1] did it give?
Answer: > 5.30

Question: And the pEC50 [2]?
Answer: 4.00 to 5.30

Question: And the pEC50 [3]?
Answer: 4.00 to 5.30

Question: With Cc1nc(-c2ccc(C(F)(F)F)cc2)sc1Cn1cc(CC(=O)O)c2ccccc21 [Example 24, {1-[4-Methyl-2-(4-trifluoromethyl-phenyl)-thiazol-5-ylmethyl]-1H-indol-3-yl}acetic acid] as the compound, how does the pEC50 [1] read?
Answer: 4.00 to 5.30

Question: And the pEC50 [2]?
Answer: 4.00 to 5.30

Question: What about the pEC50 [3] of the same compound?
Answer: > 5.30

Question: How did the pEC50 [1] turn out when Cc1nc(-c2ccc(C(F)(F)F)cc2)sc1CCN1CCc2ccc(OCC(=O)O)cc21 [Example 25, (1-{2-[4-Methyl-2-(4-trifluoromethyl-phenyl)-thiazol-5-yl]-ethyl}-2,3-dihydro-1H-indol-6-yloxy)-acetic acid] was run?
Answer: 4.00 to 5.30

Question: What about the pEC50 [2] of the same compound?
Answer: 4.00 to 5.30

Question: What about the pEC50 [3] of the same compound?
Answer: > 5.30
